Here are results for one compound from patent US12649980B2, “Three-dimensional surface for protein and small molecule microarrays” (The Johns Hopkins University, priority 2019, dated 2026).

In test [1] the test system is A549 cells. In words: [3H]-2DG uptake assay in A549 cells. Type of test: cell-based, human. Conditions: 10 min incubation with compound, mean ± s.d., n = 3. The procedure:
To determine which of the 17 rapafucin hits inhibited the transporter activity of GLUT1, an orthogonal glucose uptake assay using 2-deoxy-D-[3H] glucose ([3H]-2DG), a nonhydrolyzable, radioactive glucose analog, was employed. Each hit was separately incubated with A549 cells for 10 min before the amount of [3H]-2DG taken up by the cells was measured using scintillation counting. […] The effect of JW11-D2 on uptake of [3H]-2DG in human red blood cells that exclusively express GLUT1 was then determined. Helgerson and Carruthers, J. Biol. Chem. 1987, 262, 5464-5475. […] To further improve the potency of JW11-D2, a structure-activity relationship (SAR) study was performed by synthesizing 21 new analogs of JW11-D2 using different amino acid building blocks.
(§1) The inhibitory activity of compounds on glucose transport was analyzed by measuring the cell uptake of [3H]-2DG as previously described. Ulanovskaya et al., Chem. Biol. 2011, 18, 222-230. Briefly, cells were washed twice and incubated in low-glucose medium for 10 min. Cells were added drugs and incubated for another 10 min before adding [3H]-2DG. After 10 min incubation with [3H]-2DG, cells were washed twice and lysed with 0.2 N NaOH plus 0.2% SDS. The cell lysate was transferred to a new tube containing 1 mL of optiphase supermix. Glucose uptake was quantified with a scintillation counter.

Test [2] has as its system PANC10.05. As to the kind of experiment: [3H]-2DG uptake assay in PANC10.05 cells. Type of test: cell-based, human. The conditions noted are these: PANC 10.05. The procedure:
(§2) Hay, Nat. Rev. […] To determine whether RgA could inhibit glucose uptake in cancer cell lines in addition to A549, the impact of RgA on [3H]-2DG uptake in six other cancer cell lines, including HCC1954, MCF-7, PANC10.05, Jurkat T, HeLa, and RKO was measured (FIG. 3A, Table 3).
as §1

Test [3] has as its system Jurkat T. In words: [3H]-2DG uptake assay in Jurkat T cells. Type of test: cell-based, human. The procedure:
as §2, §1

Test [4] deals with HeLa. In words: [3H]-2DG uptake assay in HeLa cells. Type of test: cell-based, human. The procedure:
as §2, §1

Test [5] relates to MCF-7. As to the kind of experiment: Alamar blue cell proliferation assay, MCF-7. Type of test: cell-based, human. The conditions noted are these: MCF-7, 72 h; read-out: IC50 Assay B (Alamar blue cell proliferation). The procedure: (§3) The effects of RgA on cell growth, survival, and cell death was then determined. […] Treatment with 5 μM of RgA caused an increase in G1 phase by approximately 23% in comparison to control and approximately 7% and 17% decreases in cells in S and G2/M phases, respectively. The induction in G1 phase cell cycle arrest by RgA is dose-dependent (FIG. 5A, FIG. 16). […] Jones and Thompson, Genes Dev. 2009, 23, 537-548. […] The IC50 values of RgA against several human cancer cell lines also was determined using the alamar blue cell proliferation assay.
(§4) Cells were seeded into a 96-well plate (Costar) in 180 μL culture media. After an overnight recovery, drugs were added and incubated for 72 h. After drug incubation, cells were added with 20 μL of alamar blue reagent and the plates were incubated at 37° C. for 6 h before reading the fluorescence (544 nm Ex/590 nm Em) with a plate reader. GraphPad Prism (v4.03) software was used to determine IC50 values using a four parameter logistic regression.
For orientation: Alamar Blue is a resazurin reagent that responds to reducing activity.

For test [6], the system named is PANC10.05. As to the kind of experiment: Alamar blue cell proliferation assay, PANC10.05. The class given is cell-based, human. Conditions: PANC 10.05, 72 h; read-out: IC50 Assay B (Alamar blue cell proliferation). The procedure: as §3, §4
The subject of test [7] is DLD1 WT. As to the kind of experiment: [3H]-2DG uptake in DLD1 WT cells. The class given is cell-based. Conditions: DLD1 wild type. As to the method:
as §1

The subject of test [8] is Jurkat T FKBP knock out cells. As to the kind of experiment: [3H]-2DG uptake in Jurkat T FKBP12, FKBP51, FKBP52 knock out cells. Type of test: cell-based, human. The conditions noted are these: Jurkat T FKBP12, FKBP51, FKBP52 KO versus WT. The procedure:
To further determine the dependence of RgA on endogenous FKBP, three major isoforms of FKBP, FKBP12, FKBP51 and FKBP52 were knocked out using CRISPR-Cas9 in Jurkat T cells. Guo et al., Nat. Chem. 2019, 11, 254-263. Unlike ENT1 inhibitor rapacodin, Guo et al., Nat.
as §1

Test [9] concerns AMPK and mTOR activity. As to the kind of experiment: Western blot of AMPK and mTOR (S6K) activity in MCF-7 cells. The class given is cell-based, human. Conditions: MCF-7, time- and dose-dependent. From the text:
The increase in AMP/ATP ratio, in turn, is expected to activate AMPK, leading to the inhibition of the mTOR signaling pathway. Liu et al., Mol. Cancer Ther. 2012, 11, 1672-1682; Head et al., ACS Chem. Biol. 2017, 12, 174-182. The effect of RgA on AMPK and mTOR activity in MCF-7 cells was therefore determined.
(§5) For western blot analysis, cells were harvested and lysed by RIPA buffer plus protease inhibitor. Cell lysates or samples from pull-down experiment were subjected to SDS/PAGE and then transferred to a nitrocellulose membrane. Membranes were first blocked in 5% (wt/vol) BSA in Tris-buffered saline plus 0.1% Tween 20 (TBST) at room temperature for 30 min and incubated with primary antibodies at 4° C. for overnight. Membranes were then washed three times with TBST and incubated with secondary antibodies at room temperature for another 1 h. Membranes were washed with TBST three times again and incubated with ECL substrate for 1 min at room temperature. Pictures were captured using a GeneSys Image Station.
(In western blotting, separated proteins are transferred to a membrane and probed.)

For test [10], the system named is MCF-7 cells. In words: cell cycle analysis of MCF-7 cells. The class given is cell-based, human. The conditions noted are these: MCF-7, 5 μM, 24 h. As to the method:
as §3
MCF-7 cells were seeded at 5×10^5 cells/15 cm dish, allowed to recover overnight and subsequently treated with drugs or vehicle control for 24 h. Media was then collected and set aside. Cells were washed with PBS, trypsinized, combined with set aside media, pelleted at 500×g and then washed with 10 mL PBS followed by another 500×g spin. The pellet was resuspended in 0.5 mL PBS and added dropwise using a Pasteur pipette to 2 mL 75% ethanol in a 5 mL polystyrene tube being slowly agitated by a vortex. The cells were stored at 4° C. until staining. To do so, cells were pelleted at 500×g, resuspended in 5 mL PBS, rested for 60 seconds, pelleted again and washed by 5 mL PBS. The cell pellet was then resuspended in 0.5 mL staining solution (0.1% Triton-X-100, 0.2 mg/mL DNase free RNase A, and 0.02 mg/mL propidium iodide). Cells were allowed to stain for 30 min prior for analysis. Propidium iodide incorporation was measured using a FACSCalibur. The percentage of cells in each cell cycle stage was determined with FlowJo (v7.5.5) using a Watson analysis.

Test [11] deals with PARP and caspase 7. As to the kind of experiment: Western blot of apoptosis markers in MCF-7 cells. The class given is cell-based, human. Conditions: MCF-7, 5 μM, 72 h; inhibited by Z-VAD. The procedure: as §3, §5

As to `CCC(C)C1C(=O)NCC(=O)N(C)CCC=CC(=O)OCC(C)(C)C(=O)C(=O)N2CCCCC2C(=O)OC(CCc2ccc(OC)c(OC)c2)c2cccc(c2)NC(=O)CCC(=O)N(C)C(CC(C)C)C(=O)NC(Cc2ccccc2)C(=O)N1C` (centres unmarked) [JW11-D2, Rapaglutin A], the IC50 in test [1] was 11.6 nM; in [2] it was 9.5 nM; in test [3], 10.1 nM; in test [4] it was 18.9 nM; in [5], 87.3 nM; in test [6] it was 119 nM. In addition, the EC50 – broadly, the concentration giving half of the maximal effect – in test [7] came to 17.5 ± 2.5 nM. In addition, the “effect of knockout of three FKBP isoforms on sensitivity of cells” value in test [8] is recorded as “negligible effects”. Also, the AMPK activity result in [9] was “activated AMPK”. In addition, the mTOR activity result in [9] is on record as “inhibited mTOR activity”. The “decrease in cells in G2/M phase” value in test [10] is ~17%. In addition, the “decrease in cells in S phase” value in test [10] is reported as “approximately 7%”. Besides, in test [10], the “increase in G1 phase in comparison to control” value is on record as “approximately 23%”. Further, the “PARP and caspase 7 cleavage (apoptosis)” value in test [11] was “resulted in poly(ADP-ribose) polymerase (PARP) and caspase 7 cleavage”.
